{"source": "patent EP2794556B1", "about": "“BIS-(ARYL/HETEROARYL)-METHYLENE COMPOUNDS, PHARMACEUTICAL COMPOSITIONS CONTAINING SAME AND THEIR USE FOR TREATING CANCER” (Gleason, James L., priority 2011, dated 2013)", "key": {"HL-60(TB)": {"test_system": "HL-60(TB)", "test": "NCI 60 cell panel"}, "OVCAR-3": {"test_system": "OVCAR-3", "test": "NCI 60 cell panel"}, "LOX IMVI": {"test_system": "LOX IMVI", "test": "NCI 60 cell panel"}, "ACHN": {"test_system": "ACHN", "test": "NCI 60 cell panel"}, "EKVX": {"test_system": "EKVX", "test": "NCI 60 cell panel"}, "SCC4 cells": {"test_system": "SCC4 cells", "test": "EdU cell growth assay", "method": "(§1) EdU cell growth assay. Click-iT EdU Alexa Fluor high-throughput imaging (HCS) assay for cell proliferation. HCS assays were performed on AT84 mouse squamous carcinoma cell line (ATCC) following the manufacturer's instruction (Molecular Probes, Invitrogen). […] All samples were in triplicate."}, "RPMI-8226": {"test_system": "RPMI-8226", "test": "NCI 60 cell panel"}, "SK-OV-3": {"test_system": "SK-OV-3", "test": "NCI 60 cell panel"}, "SCC25 cells": {"test_system": "SCC25 cells", "test": "EdU cell growth assay", "method": "as §1"}, "UACC-257": {"test_system": "UACC-257", "test": "NCI 60 cell panel"}, "SF-295": {"test_system": "SF-295", "test": "NCI 60 cell panel"}, "SW-620": {"test_system": "SW-620", "test": "NCI 60 cell panel"}, "VDR": {"target": "T1, VDR (Homo sapiens, UniProt P11473)", "T1 construct": "endogenous in cells; host or cells: SCC25 human head and neck squamous carcinoma cells", "T1 sequence (P11473 1-427)": "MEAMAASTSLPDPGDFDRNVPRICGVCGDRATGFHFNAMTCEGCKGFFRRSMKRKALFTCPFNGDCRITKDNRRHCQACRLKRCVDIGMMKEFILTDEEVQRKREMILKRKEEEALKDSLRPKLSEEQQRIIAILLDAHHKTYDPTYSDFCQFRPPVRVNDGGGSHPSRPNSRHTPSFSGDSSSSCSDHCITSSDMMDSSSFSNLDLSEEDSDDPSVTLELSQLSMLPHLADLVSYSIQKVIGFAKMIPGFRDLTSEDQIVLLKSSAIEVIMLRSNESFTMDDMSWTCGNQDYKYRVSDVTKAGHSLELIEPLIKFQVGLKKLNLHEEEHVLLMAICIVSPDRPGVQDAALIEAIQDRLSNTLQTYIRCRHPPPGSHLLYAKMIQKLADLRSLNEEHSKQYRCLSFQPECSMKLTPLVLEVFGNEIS", "test": "VDR agonism by induction of CYP24 gene expression (RT/PCR)", "format": "cell-based"}, "CAKI-1": {"test_system": "CAKI-1", "test": "NCI 60 cell panel"}, "MCF7": {"test_system": "MCF7", "test": "NCI 60 cell panel"}, "[1]": {"test_system": "60 cell panel of human carcinoma cell lines", "test": "NCI 60 cell panel, summary in text", "format": "cell-based"}, "HCC-2998": {"test_system": "HCC-2998", "test": "NCI 60 cell panel"}}}
{"smiles": "CCC(CC)(c1ccc(OCC(=O)NO)c(C)c1)c1ccc(OCC(O)C(C)(C)C)c(C)c1", "note": "(racemic) [JF-B01, N-Hydroxy-2-(4-(3-(4-(2-hydroxy-3,3-dimethylbutoxy)-3-methylphenyl)pentan-3-yl)-2-methylphenoxy)acetamide]", "values": [{"measurement": "GI50", "setting": "HL-60(TB); Homo sapiens, HL-60", "result": 0.944, "unit": "µM"}, {"measurement": "CC50", "setting": "HL-60(TB); Homo sapiens, HL-60, read-out: LC50", "result": 8.8, "unit": "µM"}, {"measurement": "TGI", "setting": "HL-60(TB); Leukemia, HL-60(TB)", "result": "2.93E-6"}, {"measurement": "GI50", "setting": "OVCAR-3; Homo sapiens, OVCAR-3", "result": 1.73, "unit": "µM"}, {"measurement": "CC50", "setting": "OVCAR-3; Homo sapiens, OVCAR-3, read-out: LC50", "result": 21.6, "unit": "µM"}, {"measurement": "TGI", "setting": "OVCAR-3; Ovarian Cancer, OVCAR-3", "result": "5.59E-6"}, {"measurement": "GI50", "setting": "LOX IMVI; Homo sapiens", "result": 0.183, "unit": "µM"}, {"measurement": "CC50", "setting": "LOX IMVI; Homo sapiens, read-out: LC50", "result": 0.602, "unit": "µM"}, {"measurement": "TGI", "setting": "LOX IMVI; Melanoma", "result": "3.32E-7"}, {"measurement": "GI50", "setting": "ACHN; Homo sapiens", "result": 3.2, "unit": "µM"}, {"measurement": "CC50", "setting": "ACHN; Homo sapiens, read-out: LC50", "result": 35.6, "unit": "µM"}, {"measurement": "TGI", "setting": "ACHN; Renal Cancer", "result": "1.27E-5"}, {"measurement": "GI50", "setting": "EKVX; Homo sapiens", "result": 2.87, "unit": "µM"}, {"measurement": "CC50", "setting": "EKVX; Homo sapiens, read-out: LC50", "result": 35.3, "unit": "µM"}, {"measurement": "TGI", "setting": "EKVX; Non-Small Cell Lung Cancer", "result": "1.24E-5"}, {"measurement": "inhibition of proliferation, EdU incorporation", "setting": "SCC4 cells; 1,25D-resistant SCC4 cells, Fig. 2e, f", "result": "completely"}, {"measurement": "EdU incorporation at higher concentrations", "setting": "SCC4 cells; SCC4 cells, higher concentrations", "result": "completely abolished EdU incorporation"}, {"measurement": "GI50", "setting": "RPMI-8226; Homo sapiens, RPMI-8226", "result": 1.12, "unit": "µM"}, {"measurement": "CC50", "setting": "RPMI-8226; Homo sapiens, RPMI-8226, read-out: LC50", "result": 82.5, "unit": "µM"}, {"measurement": "TGI", "setting": "RPMI-8226; Leukemia, RPMI-8226", "result": "8.68E-6"}, {"measurement": "GI50", "setting": "SK-OV-3; Homo sapiens, SK-OV-3", "result": 12.2, "unit": "µM"}, {"measurement": "CC50", "setting": "SK-OV-3; Homo sapiens, SK-OV-3, read-out: LC50", "result": 49.6, "unit": "µM"}, {"measurement": "TGI", "setting": "SK-OV-3; Ovarian Cancer, SK-OV-3", "result": "2.46E-5"}, {"measurement": "antiproliferative potency, fold less potent than 1,25D", "setting": "SCC25 cells", "result": 10, "unit": "fold"}, {"measurement": "EdU incorporation at higher concentrations", "setting": "SCC25 cells; higher concentrations", "result": "completely abolished EdU incorporation"}, {"measurement": "GI50", "setting": "UACC-257; Homo sapiens, UACC-257", "result": 3.34, "unit": "µM"}, {"measurement": "CC50", "setting": "UACC-257; Homo sapiens, UACC-257, read-out: LC50", "result": 38.8, "unit": "µM"}, {"measurement": "TGI", "setting": "UACC-257; Melanoma, UACC-257", "result": "1.27E-5"}, {"measurement": "TGI", "setting": "SF-295; CNS Cancer, SF-295", "result": "2.02E-5"}, {"measurement": "GI50", "setting": "SF-295; Homo sapiens, SF-295", "result": 7.61, "unit": "µM"}, {"measurement": "CC50", "setting": "SF-295; Homo sapiens, SF-295, read-out: LC50", "result": 44.9, "unit": "µM"}, {"measurement": "TGI", "setting": "SW-620; Colon Cancer, SW-620", "result": "1.25E-5"}, {"measurement": "GI50", "setting": "SW-620; Homo sapiens, SW-620", "result": 2.3, "unit": "µM"}, {"measurement": "CC50", "setting": "SW-620; Homo sapiens, SW-620, read-out: LC50", "result": 35.4, "unit": "µM"}, {"measurement": "induction of CYP24 by the compound was blocked", "setting": "VDR; Fig. 1c, blocking agent not given", "result": "blocked"}, {"measurement": "VDR agonist potency compared with that of LG190178", "setting": "VDR; SCC25 cells, Fig. 1b", "result": "equal to or greater"}, {"measurement": "VDR agonist potency, fold lower than that of 1,25D", "setting": "VDR; SCC25 cells, Fig. 1b", "result": "approximately 10 fold"}, {"measurement": "VDR agonist activity and potency, induction of CYP24 gene expression", "setting": "VDR; SCC25 cells, Fig. 1b, 1d", "result": "efficacious agonist"}, {"measurement": "VDR agonism by induction of CYP24 gene expression", "setting": "VDR; screen at 10 µM, SCC25 cells, Fig. 1a", "result": "agonist activity"}, {"measurement": "GI50", "setting": "CAKI-1; Homo sapiens, CAKI-1", "result": 4.98, "unit": "µM"}, {"measurement": "CC50", "setting": "CAKI-1; Homo sapiens, CAKI-1, read-out: LC50", "result": 41.3, "unit": "µM"}, {"measurement": "TGI", "setting": "CAKI-1; Renal Cancer, CAKI-1", "result": "1.71E-5"}, {"measurement": "TGI", "setting": "MCF7; Breast Cancer, MCF7", "result": "2.70E-6"}, {"measurement": "GI50", "setting": "MCF7; Homo sapiens, MCF7", "result": 0.333, "unit": "µM"}, {"measurement": "CC50", "setting": "MCF7; Homo sapiens, MCF7, read-out: LC50", "result": 12.8, "unit": "µM"}, {"measurement": "antiproliferative activity", "setting": "[1]; all cell lines of the panel", "result": "antiproliferative activity in all cell lines"}, {"measurement": "full growth inhibition", "setting": "[1]; melanoma cell lines, 8 out of 9 cell lines", "result": "≤ 7", "unit": "µM"}, {"measurement": "TGI", "setting": "HCC-2998; Colon Cancer, HCC-2998", "result": "1.55E-5"}, {"measurement": "GI50", "setting": "HCC-2998; Homo sapiens, HCC 2998", "result": 4.23, "unit": "µM"}, {"measurement": "CC50", "setting": "HCC-2998; Homo sapiens, HCC 2998, read-out: LC50", "result": 41.2, "unit": "µM"}]}
